Results reported in patent publication US10065990B2, “Cyclic peptide compound, and preparation method, pharmaceutical composition and use thereof” (HANGZHOU GUANYU BIO-MEDICAL CO., LTD, priority 2013, dated 2018).
Where two headings read alike, the source gives them in different places.

What was measured:
[1] = biological target: HDAC1 (Homo sapiens, UniProt Q13547); test: HDAC biochemical activity measurement (fluorescent substrate deacetylation);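 further: fluorogenic acetyl-lysine substrate (20 µM) deacetylated by HDAC1, then developer releases fluorophore read at 360 nm excitation and 460 nm emission, inhibitor incubated 30 min at 37 °C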
Chain of HDAC1 (Q13547 whole entry, species assumed): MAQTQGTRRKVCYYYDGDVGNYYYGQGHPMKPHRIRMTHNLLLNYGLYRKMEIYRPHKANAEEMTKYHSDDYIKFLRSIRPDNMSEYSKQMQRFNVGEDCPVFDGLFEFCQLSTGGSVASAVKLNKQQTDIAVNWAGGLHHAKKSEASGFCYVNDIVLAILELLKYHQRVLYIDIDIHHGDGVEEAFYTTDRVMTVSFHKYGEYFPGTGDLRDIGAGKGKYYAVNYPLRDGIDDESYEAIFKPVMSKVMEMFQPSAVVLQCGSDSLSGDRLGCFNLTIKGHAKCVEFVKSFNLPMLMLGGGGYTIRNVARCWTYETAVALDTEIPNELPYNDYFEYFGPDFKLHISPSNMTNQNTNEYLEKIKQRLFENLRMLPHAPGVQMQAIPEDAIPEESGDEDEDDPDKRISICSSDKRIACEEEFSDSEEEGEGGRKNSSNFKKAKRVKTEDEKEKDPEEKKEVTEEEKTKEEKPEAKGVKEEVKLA
Procedure: The chemical activity of the compound is determined according to the degree of deacetylation inhibition of the HDAC enzyme. This experiment measured the degree of deacetylation related to tumor proliferation and metastasis of HDAC1, HDAC2, HDAC3, HDAC8, HDAC11 five subtypes HDAC enzymes. After the substrate containing an acetylated lysine side chain and HDAC enzyme are labeled with a fluorescent label, the fluorescent substrate is de acetyl. The fluorescent labeled substrate is cleaved by the enzyme, and the fluorescent substance is released, which generates 460 nm emission light under the excitation of 360 nm light.
HDAC substrate was diluted with reaction buffer to 200M (reaction concentration of 20M), the HDAC enzyme was diluted to the appropriate concentration, then added different concentrations of the test compounds and acted at 37° C. 30 minutes, and then added the same volume of 2-times concentration substrate developing solution (developer), incubated at room temperature for 15 minutes.

[2] = biological target: HDAC2 (Homo sapiens, UniProt Q92769); test: as above; settings: 37° C. 30 minutes;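 further: HDAC2 enzyme with an acetyl-lysine fluorescent substrate, then developer added, fluorescence read at excitation 360 nm and emission 460 nm, inhibition measured across several compound concentrations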
Chain of HDAC2 (Q92769 whole entry, species assumed): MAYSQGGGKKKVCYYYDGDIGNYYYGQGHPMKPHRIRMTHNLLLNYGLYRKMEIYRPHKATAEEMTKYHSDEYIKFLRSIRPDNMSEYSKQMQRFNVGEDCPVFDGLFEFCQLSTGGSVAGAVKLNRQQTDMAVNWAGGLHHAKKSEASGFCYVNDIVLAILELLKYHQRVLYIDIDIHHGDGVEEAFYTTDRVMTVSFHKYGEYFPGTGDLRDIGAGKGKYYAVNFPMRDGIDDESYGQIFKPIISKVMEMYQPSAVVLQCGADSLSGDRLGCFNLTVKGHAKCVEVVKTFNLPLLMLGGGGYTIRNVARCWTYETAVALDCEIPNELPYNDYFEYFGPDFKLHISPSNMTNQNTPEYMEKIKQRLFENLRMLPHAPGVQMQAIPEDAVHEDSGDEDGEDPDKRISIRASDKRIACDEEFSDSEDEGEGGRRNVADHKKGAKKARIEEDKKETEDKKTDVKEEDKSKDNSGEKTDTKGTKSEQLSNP

[3] = biological target: T1, HDAC8 (Homo sapiens, UniProt Q9BY41); test: as above; settings: 37° C. 30 minutes
T1 sequence (Q9BY41 1-377): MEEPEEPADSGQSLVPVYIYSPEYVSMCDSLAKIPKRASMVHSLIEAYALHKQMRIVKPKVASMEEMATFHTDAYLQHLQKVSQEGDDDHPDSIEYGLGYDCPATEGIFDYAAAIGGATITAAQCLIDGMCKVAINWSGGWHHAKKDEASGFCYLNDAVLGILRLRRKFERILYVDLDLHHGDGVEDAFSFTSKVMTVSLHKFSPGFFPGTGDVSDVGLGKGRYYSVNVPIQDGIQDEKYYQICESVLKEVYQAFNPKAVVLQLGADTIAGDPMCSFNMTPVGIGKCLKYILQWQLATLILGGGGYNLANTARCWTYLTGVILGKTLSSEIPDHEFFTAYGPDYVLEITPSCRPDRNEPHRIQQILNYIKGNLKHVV

[4] = biological target: T2, HDAC7 (Homo sapiens, UniProt Q8WUI4); test: as above; settings: HDAC7; 37° C. 30 minutes;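 further: fluorogenic deacetylation assay using acetyl-lysine substrate at 20 µM, enzyme and compound incubated 30 min at 37 °C, then developer added, fluorescence read at 360/460 nm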
T2 sequence (Q8WUI4 1-952): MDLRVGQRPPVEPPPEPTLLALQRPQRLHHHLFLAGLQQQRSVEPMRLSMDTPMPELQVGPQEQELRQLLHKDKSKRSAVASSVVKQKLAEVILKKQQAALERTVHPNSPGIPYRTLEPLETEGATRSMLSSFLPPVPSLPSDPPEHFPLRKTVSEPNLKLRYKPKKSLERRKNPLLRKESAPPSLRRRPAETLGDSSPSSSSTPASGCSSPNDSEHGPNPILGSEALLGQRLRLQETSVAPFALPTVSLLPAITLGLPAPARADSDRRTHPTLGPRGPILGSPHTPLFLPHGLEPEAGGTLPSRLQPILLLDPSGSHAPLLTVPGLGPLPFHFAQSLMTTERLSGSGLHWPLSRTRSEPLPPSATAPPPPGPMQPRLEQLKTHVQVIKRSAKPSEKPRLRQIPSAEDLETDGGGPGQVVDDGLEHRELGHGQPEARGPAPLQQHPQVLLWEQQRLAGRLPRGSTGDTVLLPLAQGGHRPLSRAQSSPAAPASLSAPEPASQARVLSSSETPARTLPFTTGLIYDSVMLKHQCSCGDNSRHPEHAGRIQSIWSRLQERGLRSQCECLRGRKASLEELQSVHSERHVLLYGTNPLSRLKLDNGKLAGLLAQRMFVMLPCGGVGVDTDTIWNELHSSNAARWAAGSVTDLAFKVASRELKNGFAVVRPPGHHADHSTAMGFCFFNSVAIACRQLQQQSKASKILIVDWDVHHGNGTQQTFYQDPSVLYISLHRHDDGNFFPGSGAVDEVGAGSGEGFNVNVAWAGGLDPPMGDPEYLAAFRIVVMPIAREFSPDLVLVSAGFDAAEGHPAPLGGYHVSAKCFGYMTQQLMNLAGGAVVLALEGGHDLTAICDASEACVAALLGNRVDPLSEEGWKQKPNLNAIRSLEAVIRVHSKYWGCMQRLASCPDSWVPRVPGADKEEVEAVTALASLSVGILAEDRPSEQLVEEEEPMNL

[5] = test system: Bel-7402 (human hepatoma cells); test: MTT cancer cell growth inhibition; format: cell-based; settings: MTT, 72 hours incubation, Bel-7402 cells, read-out: GI50 Bel-7402
Outline: (§1)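 Three-day compound exposure (final 10^−5–10^−10 M, three replicate wells) of cells seeded at 1500 per well precedes a 4 h MTT incubation at 37° C. Viability is taken from 570 nm absorbance after DMSO solubilisation, and GI50 calculated from it.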

[6] = test system: HCC827 (human non-small cell lung cancer cells); test: MTT cancer cell growth inhibition; format: cell-based; settings: MTT, 72 hours incubation, HCC827 cells, read-out: GI50 HCC827
Outline: as §1

[7] = test system: HT1080 (human fibrosarcoma cells); test: MTT cancer cell growth inhibition; format: cell-based; settings: MTT
Outline: as §1

[8] = test system: K562 (human leukemia cells); test: MTT cancer cell growth inhibition; format: cell-based; settings: MTT, 72 hours incubation, K562 cells, read-out: GI50 K562
Outline: as §1

[9] = test system: N-87 (human gastric cancer cells); test: MTT cancer cell growth inhibition; format: cell-based; settings: MTT, 72 hours incubation, N-87 cells, read-out: GI50 N-87
Outline: as §1

[10] = biological target: HDAC3 (Homo sapiens, UniProt O15379); test: HDAC biochemical activity measurement (fluorescent substrate deacetylation);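 further: fluorogenic acetyl-lysine substrate (20 µM) deacetylated by HDAC3, then developer added for 15 min at room temperature, release of fluorophore read at excitation 360 nm, emission 460 nm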
Chain of HDAC3 (O15379 whole entry, species assumed): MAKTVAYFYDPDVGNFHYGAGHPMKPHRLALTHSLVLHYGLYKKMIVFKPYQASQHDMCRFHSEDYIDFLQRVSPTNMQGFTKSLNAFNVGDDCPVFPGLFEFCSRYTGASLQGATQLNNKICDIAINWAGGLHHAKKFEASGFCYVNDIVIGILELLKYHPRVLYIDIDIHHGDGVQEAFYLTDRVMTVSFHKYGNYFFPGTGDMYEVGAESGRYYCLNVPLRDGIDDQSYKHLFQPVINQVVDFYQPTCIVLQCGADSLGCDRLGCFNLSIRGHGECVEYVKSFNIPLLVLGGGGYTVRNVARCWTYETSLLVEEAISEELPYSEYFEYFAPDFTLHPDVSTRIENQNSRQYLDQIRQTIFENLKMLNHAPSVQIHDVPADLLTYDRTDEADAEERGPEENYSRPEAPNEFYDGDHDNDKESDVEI
Chain of HDAC3 (Q9Y618 395-489 partner limits assumed, species assumed): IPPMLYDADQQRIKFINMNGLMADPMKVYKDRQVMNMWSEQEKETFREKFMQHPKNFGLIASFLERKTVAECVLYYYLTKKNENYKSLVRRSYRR

[11] = biological target: T3, HDAC11 (Homo sapiens, UniProt Q96DB2); test: as above;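 further: HDAC11 enzyme acting on an acetyl-lysine fluorogenic substrate, then a developer frees the fluorophore, read at excitation 360 nm and emission 460 nm, IC50 over a compound dilution series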
T3 sequence (Q96DB2 1-347): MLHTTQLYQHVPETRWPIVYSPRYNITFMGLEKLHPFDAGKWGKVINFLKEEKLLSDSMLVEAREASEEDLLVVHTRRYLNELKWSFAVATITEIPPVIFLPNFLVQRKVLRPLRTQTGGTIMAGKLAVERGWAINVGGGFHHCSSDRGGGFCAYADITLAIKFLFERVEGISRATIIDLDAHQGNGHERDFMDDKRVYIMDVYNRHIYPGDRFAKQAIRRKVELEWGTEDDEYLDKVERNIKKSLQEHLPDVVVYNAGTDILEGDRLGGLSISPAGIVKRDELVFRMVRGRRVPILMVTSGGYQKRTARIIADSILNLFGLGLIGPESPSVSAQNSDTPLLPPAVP

[12] = HDAC1, 37° C. 30 minutes, read-out: IC50 HDAC1
[13] = Table 3, read-out: IC50 HDAC1, D (non-substituent)
[14] = Homo sapiens, HT-1080, 72 h, 72 hours incubation, read-out: GI50 HT1
[15] = read-out: IC50 HDAC3, HDAC3, 37° C. 30 minutes
[16] = read-out: IC50 HDAC11, HDAC11, 37° C. 30 minutes
[17] = Table 2, read-out: IC50 HDAC1, a (compounds of the present invention)
[18] = Homo sapiens, HT-1080, 72 h, 72 hours, present invention, read-out: GI50 HT1080, a
[19] = Homo sapiens, HT-1080, 72 h, HT1080 cells, 72 hours incubation, read-out: GI50 HT1

| SMILES | IC50 [1, 12] [nM] | IC50 [1, 13] [nM] | IC50 [2] [nM] | IC50 [3] [nM] | IC50 HDAC7 [4] | GI50 ([5]; Homo sapiens, Bel-7402, 72 h) [nM] | GI50 ([6]; Homo sapiens, HCC827, 72 h) [nM] | GI50 [7, 14] [nM] | GI50 ([8]; Homo sapiens, K562, 72 h) [nM] | GI50 ([9]; Homo sapiens, 72 h) [nM] | IC50 [10, 15] [nM] | IC50 [11, 16] [nM] | IC50 [1, 17] [nM] | GI50 [7, 18] [nM] | GI50 [7, 19] [nM] | IC50 [10] [nM] | IC50 [11] [nM] | other results |
| --- | --- | --- | --- | --- | --- | --- | --- | --- | --- | --- | --- | --- | --- | --- | --- | --- | --- | --- |
| C=C1NC(=O)c2cccc(n2)CNC(=O)C[C@@H](/C=C/CCSC(C)=O)OC(=O)[C@H](C(C)C)NC1=O [Compound 19] | 179 | 179 | 63 | 69 | no activity | 97 | 48 | 70 | 26 | 51 | 39 | 103 |  |  |  |  |  |  |
| C/C=C1\NC(=O)c2cccc(n2)CNC(=O)C[C@@H](/C=C/CCSC(=O)CCCCCCC)OC(=O)[C@H](Cc2ccccc2)NC1=O [Compound 14] | 94 | 94 | 59 | 57 | no activity | 84 | 18 | 300 | 36 | 36 | 43 | 103 | < 100 | 300 |  |  |  |  |
| C/C=C1\NC(=O)c2cccc(n2)CNC(=O)C[C@@H](/C=C/CCSC(C)=O)OC(=O)[C@H](Cc2cccc3ccccc23)NC1=O [Compound 17] | 176 | 176 | 61 | 81 | no activity | 92 | 43 | 970 | 32 | 43 | 69 | 97 |  |  |  |  |  |  |
| C/C=C1\NC(=O)c2cccc(n2)CCNC(=O)C[C@@H](/C=C/CCS)OC(=O)[C@H](C(C)C)NC1=O [Compound 146] | 73 |  | 34 | 43 | no activity | 35 | 45 | 80 | 43 | 23 |  |  |  |  |  | 28 | 97 |  |
| C/C=C1\NC(=O)c2cc(SC)cc(n2)CNC(=O)C[C@@H](/C=C/CCSC(=O)CCCCCC)OC(=O)[C@H](C(C)C)NC1=O [Compound 151] | 61 |  | 24 | 38 | no activity | 26 | 38 |  | 67 | 46 |  |  |  |  | 90 | 23 | 95 |  |
| C/C=C1\NC(=O)c2cccc(n2)CNC(=O)C[C@@H](/C=C/CCSC(=O)CCCCCCC)OC(=O)[C@H](CC)NC1=O [Compound 9] | 45 | 45 | 64 | 49 | no activity | 83 | 53 | 40 | 83 | 35 | 34 | 101 | < 50 | 40 |  |  |  |  |

Now from value to compound, other results behind:

| IC50 [1, 12] [nM] | IC50 [1, 13] [nM] | IC50 [2] [nM] | IC50 [3] [nM] | IC50 HDAC7 [4] | GI50 ([5]; Homo sapiens, Bel-7402, 72 h) [nM] | GI50 ([6]; Homo sapiens, HCC827, 72 h) [nM] | GI50 [7, 14] [nM] | GI50 ([8]; Homo sapiens, K562, 72 h) [nM] | GI50 ([9]; Homo sapiens, 72 h) [nM] | IC50 [10, 15] [nM] | IC50 [11, 16] [nM] | IC50 [1, 17] [nM] | GI50 [7, 18] [nM] | GI50 [7, 19] [nM] | IC50 [10] [nM] | IC50 [11] [nM] | SMILES | other results |
| --- | --- | --- | --- | --- | --- | --- | --- | --- | --- | --- | --- | --- | --- | --- | --- | --- | --- | --- |
| 91 |  | 52 | 62 | no activity | 56 | 62 |  | 53 | 49 |  |  |  |  | 10 | 38 | 77 | C=C1NC(=O)c2cc(SC)cc(n2)CNC(=O)C[C@@H](/C=C/CCSC(C)=O)OC(=O)[C@H](C(C)C)NC1=O [Compound 205] |  |
| 72 |  | 32 | 43 | no activity | 42 | 25 |  | 69 | 58 | 35 | 77 | < 80 | 990 | 990 |  |  | C/C=C1\NC(=O)c2cccc(n2)CNC(=O)C[C@@H](/C=C/CCSC(=O)CCCCCCC)OC(=O)[C@H](C(C)(C)C)NC1=O [Compound 237] |  |
| 184 |  | 335 | 752 | no activity |  |  |  |  |  | 563 | 279 |  |  |  |  |  | C/C=C1\NC(=O)c2cc(SC)cc(n2)CNC(=O)C[C@@H](/C=C/CCSC(C)=O)OC(=O)[C@H](C(C)C)NC1=O [Compound 224] | GI50 [5]: 23 nM; GI50 [6]: 52 nM; GI50 ([7]; HT1080 cells, 72 hours incubation, read-out: GI50 HT1): 90 nM; GI50 [8]: 23 nM; GI50 [9]: 17 nM |
| 77 |  | 56 | 89 | no activity | 28 | 31 |  | 63 | 46 | 47 | 28 | < 100 | 11 | 10 |  |  | C/C=C1\NC(=O)c2cccc(n2)CNC(=O)C[C@@H](/C=C/CCSC(=O)CCCCCCC)OC(=O)[C@H](Cc2cccc3ccccc23)NC1=O [Compound 239] |  |
| 66 |  | 74 | 102 | no activity | 87 | 96 |  | 83 | 53 | 52 | 126 | < 100 | 650 | 650 |  |  | CCCCCCCC(=O)SCC/C=C/[C@@H]1CC(=O)NCc2cccc(n2)C(=O)NC(CC)C(=O)N[C@@H](C(C)C)C(=O)O1 (some centres unmarked) [Compound 245] |  |
| 68 |  | 35 | 35 | no activity | 38 | 23 |  | 46 | 39 |  |  |  |  | 40 | 18 | 95 | C/C=C1\NC(=O)c2nc(ccc2SC)CNC(=O)C[C@@H](/C=C/CCSC(=O)CCCCCCC)OC(=O)[C@H](CC)NC1=O [Compound 171] |  |
